Reference: patent US20240261418A1, “SOS1 DEGRADING AGENT AND PREPARATION METHOD THEREFOR AND APPLICATION THEREOF” (SHANGHAI LEADINGTAC PHARMACEUTICAL CO. LTD., priority 2021, published 2024)

What was measured:
[1] = system: KRAS G12V mutant human lung adenocarcinoma cells NCI-H441; assay: 3D cell proliferation inhibition assay, NCI-H441; format: cell-based; details: NCI-H441, 168 h, 7 days, CTG
Text: (§1) Test Example 4: 3D Cell Proliferation Inhibition Assay
(§2) The inhibitory effect of the compounds on the proliferation of 3D cells was investigated on KRAS G12C mutant human non-small cell lung cancer cells NCI-H358 (ATCC or Stem Cell Bank, Chinese Academy of Sciences), KRAS G12D mutant human metastatic pancreatic adenocarcinoma cells AsPC-1 (ATCC), KRAS G12V mutant human lung adenocarcinoma cells NCI-H441 (ATCC), and KRAS G13D mutant human colorectal adenocarcinoma epithelial cells DLD-1 (ATCC). The specific procedures were as follows:
(§3) 200 nL of compound solution diluted in a gradient was added to corresponding microwells of a 384-well low-adsorption microwell plate (Corning, 3657) using an Echo sonic pipetting system (Labcyte, Echo 550), so that the final concentration of the test compound in the reaction system was in a range of 20000 nM-0.008 nM. Then 40 μL of cells at a certain density were added to the corresponding microplate. In addition to test wells for the test compounds, both a DMSO control well and a medium control well were set, with the DMSO control well containing DMSO and cells and the medium well containing only medium. […] The plate was incubated at room temperature for 30 min and read on a microplate reader EnVision using the chemiluminescence program. […]

[2] = system: KRAS G13D mutant human colorectal adenocarcinoma epithelial cells DLD-1; assay: 3D cell proliferation inhibition assay, DLD-1; format: cell-based; details: DLD-1, 168 h, 7 days, CTG
Text: as §1, §2, §3

IC50 [1] | IC50 [2] | Structure (SMILES)
0.05 to 0.1 µM | 0.03 to 0.05 µM | COc1cc2nc(C)nc(N[C@H](C)c3cc(-c4c(Cl)cccc4CN(C)C)cs3)c2cc1[C@H]1CC[C@H](C(=O)N2CCN(CC3CCC4(CC3)CCN(C(=O)c3ccc(Cl)c(N5CCC(=O)NC5=O)c3)CC4)CC2)CC1 [Example 1, 1-(2-chloro-5-(9-((4-((1R,4R)-4-(4-(((R)-1-(4-(2-chloro-6-((dimethylamino)methyl)phenyl)thien-2-yl)ethyl)amino)-7-methoxy-2-methylquinazolin-6-yl)cyclohexane-1-carbonyl)piperazin-1-yl)methyl)-3-azaspiro[5.5]undecane-3-carbonyl)phenyl)dihydropyrimidine-2,4(1H,3H)-dione]
≤ 0.015 µM | 0.05 to 0.1 µM | COc1cc2nc(C)nc(N[C@H](C)c3cc(-c4c(Cl)cccc4CN(C)C)cs3)c2cc1[C@H]1CC[C@H](C(=O)N2CCC(CCOCC3CCN(C(=O)c4ccc(Cl)c(N5CCC(=O)NC5=O)c4)CC3)CC2)CC1 [Example 5, 1-(2-chloro-5-(4-((2-(1-((1R,4R)-4-(4-(((R)-1-(4-(2-chloro-6-((dimethylamino)methyl)phenyl)thien-2-yl)ethyl)amino)-7-methoxy-2-methylquinazolin-6-yl)cyclohexane-1-carbonyl)piperidin-4-yl)ethoxy)methyl)piperidine-1-carbonyl)phenyl)dihydropyrimidine-2,4(1H,3H)-dione]
